Data taken from patent US20240335569A1, “FIBROBLAST ACTIVATION PROTEIN INHIBITORS AND USE THEREOF” (3 B PHARMACEUTICALS GMBH, priority 2021, published 2024).

How the values were obtained:
[1] = molecular target: recombinant human PREP (Homo sapiens (Human), UniProt P48147); assay: PREP protease activity assay; format: biochemical
Protocol: (§1) The PREP activity assay was performed using the FACS buffer (PBS including 1% FBS, Sigma-Aldrich, Cat #D8537). […] The DPP4 activity assay was performed in DPP assay buffer (25 mM Tris, pH 8.0). […] Four parameter logistic (4PL) curve fitting and pIC50 calculations were performed using ActivityBase software.

[2] = molecular target: FAP-expressing human WI-38 fibroblasts (Homo sapiens (Human), UniProt Q12884); assay: FACS binding assay (competitive, Cy5-labeled 3BP-2935)
Protocol: In order to determine binding of compounds according to the present invention to FAP-expressing cells, a competitive FACS binding assay was established. […] Cells were diluted in FACS buffer to a final concentration of 100.000 cells per ml and 200 μl of the cell suspension are transferred to a u-shaped non-binding 96-well plate (Greiner). […] Cell were washed twice with FACS buffer (see above) and resuspended in 200 μl FACS buffer. Cells were analyzed in an Attune NxT flow cytometer (Thermo Fisher Scientific). Median fluorescence intensities (Cy5 channel) were calculated by Attune NxT software and plotted against test compound concentrations. Four parameter logistic (4PL) curve fitting and pIC50 calculations were performed using ActivityBase software.

[3] = molecular target: T1, Human recombinant FAP (Homo sapiens (Human), UniProt Q12884); assay: Surface plasmon resonance assay (Biacore T200, SCK); format: binding; conditions: for HL [min] (Biacore): SPR dissociation half-life; for Kd / pKD (Biacore): SPR; for Kd: read-out: pKD (Biacore) (converted)
Protocol: Surface plasmon resonance studies were performed using a Biacore™ T200 SPR system (Cytiva, formerly GE Healthcare). Briefly, polarized light is directed towards a gold-labeled sensor surface, and minimum intensity reflected light is detected. The angle of reflected light changes as molecules bind and dissociate. […] Test compounds are contacted with the loaded surface, and a real-time interaction profile with the FAP ligand is recorded in a sensorgram. In real-time, the association and dissociation of a binding interaction is measured, enabling calculation of association and dissociation rate constants and the corresponding affinity constants. Importantly, a background response is generated due to the difference in the refractive indices of the running and sample buffers, as well as unspecific binding of the test compounds to the flow cell surface. This background is measured and subtracted by running the sample on a control flow cell coated with the same density of capture antibody in the absence of immobilized FAP. Furthermore, baseline drift correction of the binding data is performed, which is caused by slow dissociation of the captured FAP from the immobilized antibody. This drift is measured by injecting running buffer through a flow cell with the antibody and FAP immobilized to the sensor surface.
Biacore™ CM5 sensor chips were used. […] A 150 μL aliquot was transferred into plastic vials and placed into the sample rack of the Biacore™ T200 instrument. Amine Coupling Kit Reagent solutions were transferred into plastic vials and placed into the sample rack: 90 μL of 0.4 M 1-ethyl-3-(3-dimethylaminopropyl) carbodiimide (EDC), and 90 μL of 0.1 M N-hydroxysuccinimide (NHS). A 130 μL aliquot of 1 M ethanolamine-HCl, pH 8.5, was transferred into plastic vials and placed into the sample rack. The Biacore™ liquid system was set-up as follows: Separate bottles containing distilled water (1 L), Running Buffer (500 mL), as well as an empty bottle for waste were placed onto the buffer tray. A preinstalled program for immobilization was used, with an immobilization level of 7000 RU. Immobilization was performed at 25° C. The immobilization procedure of anti-FAP antibodies was performed, as described in the Table 4.
Human recombinant FAP was diluted in Running Buffer to a final concentration of 20 μg/mL. A 100 μL aliquot of human FAP-Working-Solution was transferred into plastic vials and placed into a sample rack. A 0.5 mM Compound-Stock-Solution was prepared by dissolving each compound in DMSO. For each test compound, Compound-Stock-Solutions were diluted in Running Buffer (HBST) at 500 nM and further diluted with HBST-DMSO Buffer (0.1% DMSO). SPR binding analyses for binary complexes were performed in SCK mode at 25° C. Following three SCK measurements, a baseline drift was assessed by injecting running buffer through a flow cell, with the antibody and FAP immobilized to the sensor surface.
For each test compound, SPR raw data in the form of resonance units (RU) were plotted as sensorgrams using the Biacore™ T200 control software. The signal from the blank sensorgram was subtracted from that of the test compound sensorgram (blank corrected). The blank corrected sensorgram was corrected for baseline drift by subtracting the sensorgram of a SCK run without the test compound (running buffer only). The association rate (kon), dissociation rate (koff), dissociation constant (KD), and t1/2 were calculated from Blank-normalized SPR data using the 1:1 Langmuir binding model from the Biacore™ T200 evaluation software. Raw data and fit results were imported as text files in IDBS. The pKD value (negative decadic logarithm of dissociation constant) was calculated in the IDBS excel template.
Target sequence in this assay (Q12884 whole entry): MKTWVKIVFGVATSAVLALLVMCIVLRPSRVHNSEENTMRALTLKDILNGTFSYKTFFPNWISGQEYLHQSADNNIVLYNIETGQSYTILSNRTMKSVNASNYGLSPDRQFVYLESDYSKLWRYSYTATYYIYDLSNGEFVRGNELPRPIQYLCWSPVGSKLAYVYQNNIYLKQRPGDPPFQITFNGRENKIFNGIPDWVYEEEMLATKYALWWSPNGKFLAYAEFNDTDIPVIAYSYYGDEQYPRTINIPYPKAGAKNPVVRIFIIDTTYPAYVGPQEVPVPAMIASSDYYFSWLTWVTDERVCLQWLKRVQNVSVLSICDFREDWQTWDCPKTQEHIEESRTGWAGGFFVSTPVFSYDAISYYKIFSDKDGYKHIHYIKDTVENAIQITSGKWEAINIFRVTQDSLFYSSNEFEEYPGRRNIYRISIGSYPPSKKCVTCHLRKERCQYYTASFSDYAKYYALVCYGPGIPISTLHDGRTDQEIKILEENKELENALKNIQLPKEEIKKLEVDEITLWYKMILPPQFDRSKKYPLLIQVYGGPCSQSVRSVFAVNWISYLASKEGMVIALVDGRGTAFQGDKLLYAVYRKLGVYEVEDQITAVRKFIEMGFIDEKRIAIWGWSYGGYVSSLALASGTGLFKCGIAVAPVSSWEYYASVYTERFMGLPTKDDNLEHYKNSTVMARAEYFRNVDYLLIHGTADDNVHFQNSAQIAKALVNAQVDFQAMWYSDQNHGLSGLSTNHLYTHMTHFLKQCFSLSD

[4] = molecular target: T1, Human recombinant FAP; assay: FAP protease activity assay (human), FRET-based; format: biochemical; conditions: for IC50: read-out: pIC50 (Activity) (converted)
Protocol: (§2) In order to determine the inhibitory activity a FRET-based FAP protease activity assay was established.
Four parameter logistic (4PL) curve fitting and pIC50 calculations were performed using ActivityBase software (IDBS).
Target sequence in this assay (Q12884 26-760): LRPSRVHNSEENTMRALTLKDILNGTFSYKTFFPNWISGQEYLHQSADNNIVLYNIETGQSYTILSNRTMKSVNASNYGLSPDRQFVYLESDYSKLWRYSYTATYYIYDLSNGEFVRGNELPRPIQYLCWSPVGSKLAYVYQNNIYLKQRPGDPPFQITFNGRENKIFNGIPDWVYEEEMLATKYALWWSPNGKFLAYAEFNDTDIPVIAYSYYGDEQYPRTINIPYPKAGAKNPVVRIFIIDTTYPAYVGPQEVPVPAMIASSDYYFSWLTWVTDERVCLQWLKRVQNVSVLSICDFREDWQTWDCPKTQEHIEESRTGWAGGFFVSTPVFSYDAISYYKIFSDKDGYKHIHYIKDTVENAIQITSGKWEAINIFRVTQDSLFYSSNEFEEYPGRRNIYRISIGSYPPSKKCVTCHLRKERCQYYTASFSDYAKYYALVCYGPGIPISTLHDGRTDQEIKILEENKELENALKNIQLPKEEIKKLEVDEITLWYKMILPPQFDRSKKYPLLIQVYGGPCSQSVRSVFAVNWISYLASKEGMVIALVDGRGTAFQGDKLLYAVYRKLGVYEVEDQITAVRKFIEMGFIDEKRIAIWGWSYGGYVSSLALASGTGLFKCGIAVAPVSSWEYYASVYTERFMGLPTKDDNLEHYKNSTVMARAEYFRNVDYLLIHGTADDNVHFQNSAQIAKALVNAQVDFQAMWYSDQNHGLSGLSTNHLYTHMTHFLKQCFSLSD

[5] = molecular target: Recombinant human DPP4 (Homo sapiens (Human), UniProt P27487); assay: DPP4 protease activity assay; format: biochemical
Protocol: as §1

[6] = molecular target: Recombinant mouse FAP (Mus musculus (Mouse), UniProt P97321); assay: FAP protease activity assay (mouse), FRET-based; format: biochemical
Protocol: as §2
Four parameter logistic (4PL) curve fitting and pIC50 calculations were performed using ActivityBase software.

[7] = system: HT-29 cells; assay: Stability in the presence of tumor cells (HT-29), FAP IC50 of supernatants; format: in vitro ADME, human; conditions: for pIC50 (incubation in cell medium w/o HT-29) / pIC50 (incubation in the presence of HT-29 cells): 10 μM compound, supernatant tested on recombinant human FAP; for pIC50 (incubation in cell medium w/o HT-29): 24 hours at 37° C. in control wells without cells; for pIC50 (incubation in the presence of HT-29 cells): 24 hours at 37° C. with HT-29 cells
Protocol: Cells were cultured in McCoys's 5A modified medium (Biochrom, #F1015) including 10% fetal bovine serum (FBS), 2 mM L-glutamine, 100 U/ml penicillin and 100 μg/mL streptomycin (growth medium). […] 1 mL of the cell suspension were seeded in 24-well plates and incubated overnight at 37° C. and 5% CO2. The next day, cells were washed twice and growth medium was exchanged against DMEM without phenol red (Biochrom, #F0475) including 2 mM L-glutamine. Test compound was diluted in DMEM without phenol red (Biochrom, #F0475) including 2 mM L-glutamine. 400 μL of a 10 μM solution of the test compound was incubated for 24 hours at 37° C. and 5% CO2 in the presence of cells as well as in control wells (without cells) of the same 24-well plate.
25 μL of a 30 μM substrate solution, diluted in assay buffer, was added. All solutions were equilibrated at 37° C. prior to use. […] RFU/sec was calculated by SoftMax Pro software and plotted against test compound concentration. Four parameter logistic (4PL) curve fitting and IC50/pIC50 calculations were performed using GraphPad Prism 9.1 software.
The stability of exemplary compounds was further assessed in the presence of a variety of human cell lines from different tissue origins. […] Compounds were diluted in DMEM without phenol red (Biochrom, #F0475) including 2 mM L-glutamine. 400 μL of a 10 μM solution of the test compound was incubated for 24 hours at 37° C. and 5% CO2 in the presence of cells as well as in control wells (without cells) of the same 24-well plate. IC50/pIC50 determination of the supernatants was performed as described above.

[8] = human FAP protease activity, FRET
[9] = recombinant mouse FAP protease activity
[10] = FAP-expressing WI-38 fibroblasts
[11] = recombinant human FAP, FRET protease activity
[12] = recombinant mouse FAP, FRET protease activity

FAP-expressing human WI-38 fibroblasts, sequence (Q12884 whole entry): as the sequence (Q12884 whole entry) above
recombinant human PREP, sequence (P48147 whole entry): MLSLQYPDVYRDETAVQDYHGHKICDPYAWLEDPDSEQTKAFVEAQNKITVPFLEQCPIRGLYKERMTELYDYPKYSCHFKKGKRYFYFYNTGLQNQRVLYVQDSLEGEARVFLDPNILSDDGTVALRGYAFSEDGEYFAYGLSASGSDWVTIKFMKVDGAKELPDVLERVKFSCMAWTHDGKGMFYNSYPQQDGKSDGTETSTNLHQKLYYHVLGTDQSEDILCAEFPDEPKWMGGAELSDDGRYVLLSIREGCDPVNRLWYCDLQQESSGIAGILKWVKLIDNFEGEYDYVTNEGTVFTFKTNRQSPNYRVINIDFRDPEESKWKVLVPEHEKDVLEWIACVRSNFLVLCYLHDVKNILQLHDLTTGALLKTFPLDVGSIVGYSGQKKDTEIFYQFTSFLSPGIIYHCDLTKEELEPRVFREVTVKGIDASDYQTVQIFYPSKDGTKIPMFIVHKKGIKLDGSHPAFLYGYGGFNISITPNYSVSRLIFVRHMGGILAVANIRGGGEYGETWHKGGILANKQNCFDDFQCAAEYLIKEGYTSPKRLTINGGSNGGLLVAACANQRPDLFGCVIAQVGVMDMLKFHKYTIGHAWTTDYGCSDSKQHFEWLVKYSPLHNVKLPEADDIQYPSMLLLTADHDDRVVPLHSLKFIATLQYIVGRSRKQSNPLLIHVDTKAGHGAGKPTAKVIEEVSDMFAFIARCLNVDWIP
Recombinant human DPP4, sequence (P27487 whole entry): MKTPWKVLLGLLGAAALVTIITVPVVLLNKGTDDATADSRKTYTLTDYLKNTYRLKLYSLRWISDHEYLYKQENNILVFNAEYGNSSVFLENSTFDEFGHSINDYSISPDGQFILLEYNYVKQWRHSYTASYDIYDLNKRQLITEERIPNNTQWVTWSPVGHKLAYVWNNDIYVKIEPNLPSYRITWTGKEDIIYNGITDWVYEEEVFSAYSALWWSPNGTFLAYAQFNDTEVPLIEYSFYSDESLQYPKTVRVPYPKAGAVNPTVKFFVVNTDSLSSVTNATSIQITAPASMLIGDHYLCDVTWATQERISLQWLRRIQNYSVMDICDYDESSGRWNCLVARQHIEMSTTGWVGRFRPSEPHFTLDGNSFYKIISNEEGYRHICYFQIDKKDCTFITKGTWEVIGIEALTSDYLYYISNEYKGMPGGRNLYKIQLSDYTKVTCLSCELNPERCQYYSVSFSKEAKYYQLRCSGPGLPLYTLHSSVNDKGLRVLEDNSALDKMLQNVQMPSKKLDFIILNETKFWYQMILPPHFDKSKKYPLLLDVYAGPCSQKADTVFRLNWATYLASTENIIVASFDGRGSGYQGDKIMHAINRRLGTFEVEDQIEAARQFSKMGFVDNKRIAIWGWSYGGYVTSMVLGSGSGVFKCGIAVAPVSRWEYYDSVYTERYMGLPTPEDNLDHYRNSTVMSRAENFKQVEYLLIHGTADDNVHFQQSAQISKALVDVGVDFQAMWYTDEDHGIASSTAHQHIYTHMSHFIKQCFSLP
Recombinant mouse FAP, sequence (P97321 whole entry): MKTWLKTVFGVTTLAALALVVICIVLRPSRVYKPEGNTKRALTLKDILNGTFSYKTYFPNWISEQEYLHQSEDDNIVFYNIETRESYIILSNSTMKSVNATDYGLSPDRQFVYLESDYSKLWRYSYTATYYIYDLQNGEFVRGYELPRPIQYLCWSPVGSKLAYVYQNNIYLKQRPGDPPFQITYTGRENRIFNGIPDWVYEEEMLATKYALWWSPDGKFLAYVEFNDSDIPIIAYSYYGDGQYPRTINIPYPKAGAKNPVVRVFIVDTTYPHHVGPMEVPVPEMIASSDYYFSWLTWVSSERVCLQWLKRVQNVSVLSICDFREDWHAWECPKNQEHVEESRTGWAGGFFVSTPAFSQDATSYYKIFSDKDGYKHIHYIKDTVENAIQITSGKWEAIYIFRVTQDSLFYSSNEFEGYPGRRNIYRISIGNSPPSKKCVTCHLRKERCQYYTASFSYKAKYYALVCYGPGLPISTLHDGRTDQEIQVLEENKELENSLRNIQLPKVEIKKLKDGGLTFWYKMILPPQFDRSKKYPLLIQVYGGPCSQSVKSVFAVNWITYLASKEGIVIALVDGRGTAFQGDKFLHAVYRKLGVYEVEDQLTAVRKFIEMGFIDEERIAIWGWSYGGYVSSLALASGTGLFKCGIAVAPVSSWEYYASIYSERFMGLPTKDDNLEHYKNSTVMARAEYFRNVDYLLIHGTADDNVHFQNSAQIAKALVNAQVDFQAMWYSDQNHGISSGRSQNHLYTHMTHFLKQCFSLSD

Compound | HL [min] (Biacore) [3] | pIC50 (FACS) ([2]; WI-38 fibroblasts) | pIC50 (Activity) [4, 8] | pIC50 (mouseFAP) [6, 9] | pIC50 (DPP4) [5] | further results
N#C[C@@H]1CCCN1C(=O)CNC(=O)c1ccnc2ccc(-c3ccc(C(=O)NCCCN(CC(=O)O)C(=O)CN4CCN(CC(=O)O)CCN(CC(=O)O)CCN(CC(=O)O)CC4)cc3)cc12 [Compound 3BP-3954, (S)-2,2′,2″-(10-(2-((carboxymethyl)(3-(4-(4-(2-(2-cyanopyrrolidin-1-yl)-2-oxoethylcarbamoyl)quinolin-6-yl)benzamido)propyl)amino)-2-oxoethyl)-1,4,7,10-tetraazacyclododecane-1,4,7-triyl)triacetic Acid] | >150 | – | – | – | – | IC50 [1]: > 1000 nM; IC50 ([2]; WI-38 fibroblasts): 3.98 nM; Kd [3]: < 0.0316 nM; IC50 [4, 8]: 1.26 nM; IC50 ([5]; read-out: pIC50 (DPP4) (converted)): > 1000 nM
Cc1cc(S(C)(=O)=O)ccc1-c1ccc2nccc(C(=O)NCC(=O)N3CCC[C@H]3C#N)c2c1 [Compound 3BP-3953] | – | 7.9 | 9.2 | 8.9 | <6 | –
CS(=O)(=O)c1ccc(-c2ccc3nccc(C(=O)NCC(=O)N4C[C@H](F)C[C@H]4C#N)c3c2)cc1 [Compound 3BP-3773] | – | 7.3 | 8.5 | 8 | <6 | –
N#C[C@@H]1CCCN1C(=O)CNC(=O)c1ccnc2ccccc12 [Compound 3BP-2762] | – | – | – | – | <6 | pIC50 (incubation in cell medium w/o HT-29) [7]: 8.4; Residual activity after incubation with HT-29 cells for 24 hours (%) [7]: 63%
N#C[C@@H]1CC(F)(F)CN1C(=O)CNC(=O)c1ccnc2ccc(OCCCN3CCN(C(=O)CN4CCN5CCN6CCN(CC4)CC(=O)[O][Eu]([O]C(=O)C6)[O]C(=O)C5)CC3)cc12 [Compound 3BP-3663] | – | – | – | – | – | pIC50 (FACS) [2, 10]: 8.6; pIC50 (Activity) [4, 11]: 9.3; pIC50 (mouseFAP) [6, 12]: 9.1
CS(=O)(=O)c1cc(F)c(-c2ccc3nccc(C(=O)NCC(=O)N4CCC[C@H]4C#N)c3c2)c(F)c1 [Compound 3BP-3828] | – | 8.5 | 9.3 | 9 | <6 | –
Cc1cc(S(C)(=O)=O)ccc1-c1ccc2nccc(C(=O)NCC(=O)N3CC(F)(F)C[C@H]3C#N)c2c1 [Compound 3BP-3952] | – | 8.7 | 9.3 | 8.8 | 6.1 | –
N#C[C@@H]1CC(F)(F)CN1C(=O)CNC(=O)c1ccnc2ccc(OCCCN3CCN(C(=O)CN4CCN5CCN6CCN(CC4)CC(=O)[O][Lu]([O]C(=O)C6)[O]C(=O)C5)CC3)cc12 [Compound 3BP-3469] | 35.5 | – | – | – | <6 | pIC50 (FACS) [2, 10]: 8.7; pKD (Biacore) [3]: 10.2; pIC50 (Activity) [4, 11]: 9.3; pIC50 (incubation in cell medium w/o HT-29) [7]: 9.2; pIC50 (incubation in the presence of HT-29 cells) [7]: 8.3; Residual activity after incubation with HT-29 cells for 24 hours (%) [7]: 13%; pIC50 (mouseFAP) [6, 12]: 9.1
N#C[C@@H]1CC(F)(F)CN1C(=O)CNC(=O)c1ccnc2ccc(-c3ccc(S(=O)(=O)CCCNC(=O)CN4CCN(CC(=O)O)CCN(CC(=O)O)CCN(CC(=O)O)CC4)cc3)cc12 [Compound 3BP-3467] | >150 | – | – | – | – | pKD (Biacore) [3]: >10.5; pIC50 (incubation in cell medium w/o HT-29) [7]: 9.3; pIC50 (incubation in the presence of HT-29 cells) [7]: 8.4; Residual activity after incubation with HT-29 cells for 24 hours (%) [7]: 13%
N#C[C@@H]1CCCN1C(=O)CNC(=O)c1ccnc2ccc(-c3ccc(C(=O)NCCCNC(O)CN4CCN5CCN6CCN(CC4)CC(=O)[O][Eu]([O]C(=O)C6)[O]C(=O)C5)cc3)cc12 (stereo partly shown) [Compound 3BP-3830] | 64 | 8.5 | 9.3 | 8.7 | <6 | pKD (Biacore) [3]: 10
Cc1cc2nccc(C(=O)NCC(=O)N3CC(F)(F)C[C@H]3C#N)c2cc1-c1ccc(S(C)(=O)=O)cc1 [Compound 3BP-4026] | – | 8.9 | 9.3 | 8.8 | – | –
N#C[C@@H]1CCCN1C(=O)CNC(=O)c1ccnc2ccc(-c3ccc(C(=O)O)cc3)cc12 [Compound 3BP-3295] | 11 | – | – | – | – | IC50 [1]: > 1000 nM
N#C[C@@H]1CCCN1C(=O)CNC(=O)c1ccnc2cc(-c3cccc(C(=O)O)c3)ccc12 [Compound 3BP-3293] | – | – | – | – | <6 | pIC50 (PREP) [1]: <6; pIC50 (FACS) [2, 10]: 8.6; pIC50 (Activity) [4, 11]: 8.8
N#C[C@@H]1CC(F)(F)CN1C(=O)CNC(=O)c1ccnc2ccccc12 [Compound 3BP-3232] | – | – | – | – | – | pIC50 (incubation in the presence of HT-29 cells) [7]: 8.0; Residual activity after incubation with HT-29 cells for 24 hours (%) [7]: 13%
N#C[C@@H]1CC(F)(F)CN1C(=O)CNC(=O)c1ccnc2ccc(-c3ccc(C(=O)NCCCNC(O)CN4CCN5CCN6CCN(CC4)CC(=O)[O][Eu]([O]C(=O)C6)[O]C(=O)C5)cc3)cc12 (stereo partly shown) [Compound 3BP-3829] | >150 | 8.9 | 9.4 | 8.9 | <6 | pKD (Biacore) [3]: >10.5
N#C[C@@H]1CC(F)(F)CN1C(=O)CNC(=O)c1ccnc2ccc(-c3ccc(C(=O)NCCN4CCN(C(=O)CN5CCN(CC(=O)O)CCN(CC(=O)O)CCN(CC(=O)O)CC5)CC4)nc3)cc12 [Compound 3BP-4076, (S)-2,2′,2″-(10-(2-(4-(2-(5-(4-(2-(2-cyano-4,4-difluoropyrrolidin-1-yl)-2-oxoethylcarbamoyl)quinolin-6-yl)picolinamido)ethyl)piperazin-1-yl)-2-oxoethyl)-1,4,7,10-tetraazacyclododecane-1,4,7-triyl)triacetic Acid] | >150 | – | – | – | – | IC50 ([2]; WI-38 fibroblasts): 1.26 nM; Kd [3]: < 0.0316 nM; IC50 [4, 8]: 0.631 nM
O=C(O)CN1CCN(CC(=O)O)CCN(CC(=O)N2CCN(CCCOc3ccc4nccc(C(=O)NCC(=O)N5CC(F)(F)C[C@H]5C(=O)c5nc6ccccc6o5)c4c3)CC2)CCN(CC(=O)O)CC1 [Compound 3BP-3412] | 57 | – | – | – | – | pIC50 (incubation in the presence of HT-29 cells) [7]: 8.6; Residual activity after incubation with HT-29 cells for 24 hours (%) [7]: >95%
CS(=O)(=O)c1ccc(-c2ccc3nccc(C(=O)NCC(=O)N4C[C@@H](F)C[C@H]4C#N)c3c2)cc1 [Compound 3BP-3774] | – | 8.8 | 9.2 | 9.2 | <6 | –
